Drawing on US11999727B2 (Tango Therapeutics, Inc., priority 2020, dated 2024), this text covers IC50 and MTAP intact/deleted ratio for 18 molecules.

The test system of assay [1] is HAP1 MTAP-deleted cell line. The assay can be described thus: Viability assay, MTAP-deleted cell line. The assay is classed as cell-based. Particulars: Homo sapiens, read-out: HAP1 MTAP deleted viability. The source says: Table 1 additionally indicates IC50 values in a viability assay for the MTAP-deleted cell line (column 10), indicating the effect of treatment with compound on cell survival.

In assay [2] the test system is HAP1 MTAP-intact cell line. Nature of the assay: SDMA in-cell western assay, HAP1 MTAP-intact. The assay is classed as cell-based. The note with it: Homo sapiens, HAP1, SDMA in-cell western, HAP1 MTAP-intact; read-out: MTAP HAP1 intact IC50. The procedure, abridged:
(§1)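 Isogenic HAP1 pair: the MTAP-intact line expresses endogenous MTAP, and the deleted line is MTAP-null. Symmetric dimethylarginine was detected by in-cell western and IC50 values derived for each line.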

Assay [3] addresses T1, PRMT5 (Homo sapiens, UniProt O14744).
T1 construct: purchased Viva (custom protein)
Nature of the assay: PRMT5 biochemical IC50 assay with no cofactor. The note with it: PRMT5, no cofactor; read-out: No Cofactor/rel IC50. The source says: Table 1 indicates IC50 values (μM) against PRMT5 for exemplary compounds in the presence of SAM as cofactor, with no cofactor, and with MTA as cofactor, respectively (columns 4-6). […] Ki values can be calculated from the IC50 values as described in the Examples section. As detailed in the Examples section, for the assay performed in the presence of SAM, IC50=Ki×1.5 (Ki=IC50/1.5).

The target in assay [4] is T1, PRMT5. Nature of the assay: PRMT5 biochemical IC50 assay with SAM as cofactor. The note with it: PRMT5, SAM as cofactor; read-out: SAM IC50.
Assay [5] relates to HAP1 MTAP-deleted cell line. Nature of the assay: SDMA in-cell western assay, HAP1 MTAP-deleted. The assay is classed as cell-based. Particulars: for IC50: Homo sapiens, HAP1, SDMA in-cell western, HAP1 MTAP-deleted; for MTAP intact/deleted ratio: IC50 ratio HAP1 MTAP-intact / HAP1 MTAP-deleted, SDMA in-cell western. The procedure, abridged: as §1
Assay [6] deals with T1, PRMT5. Nature of the assay: PRMT5 biochemical IC50 assay with MTA as cofactor. Particulars: PRMT5, MTA as cofactor; read-out: MTA IC50.
Where [7] appears, read: HAP1, viability assay, MTAP-deleted cell line.
[8] abbreviates: read-out: HAP1 MTAP deleted IC50.
Setting [9] is: HAP1, viability IC50, MTAP-deleted cell line.
[10] abbreviates: read-out: HAP 1 MTAP deleted IC50.

T1 sequence (O14744 whole entry): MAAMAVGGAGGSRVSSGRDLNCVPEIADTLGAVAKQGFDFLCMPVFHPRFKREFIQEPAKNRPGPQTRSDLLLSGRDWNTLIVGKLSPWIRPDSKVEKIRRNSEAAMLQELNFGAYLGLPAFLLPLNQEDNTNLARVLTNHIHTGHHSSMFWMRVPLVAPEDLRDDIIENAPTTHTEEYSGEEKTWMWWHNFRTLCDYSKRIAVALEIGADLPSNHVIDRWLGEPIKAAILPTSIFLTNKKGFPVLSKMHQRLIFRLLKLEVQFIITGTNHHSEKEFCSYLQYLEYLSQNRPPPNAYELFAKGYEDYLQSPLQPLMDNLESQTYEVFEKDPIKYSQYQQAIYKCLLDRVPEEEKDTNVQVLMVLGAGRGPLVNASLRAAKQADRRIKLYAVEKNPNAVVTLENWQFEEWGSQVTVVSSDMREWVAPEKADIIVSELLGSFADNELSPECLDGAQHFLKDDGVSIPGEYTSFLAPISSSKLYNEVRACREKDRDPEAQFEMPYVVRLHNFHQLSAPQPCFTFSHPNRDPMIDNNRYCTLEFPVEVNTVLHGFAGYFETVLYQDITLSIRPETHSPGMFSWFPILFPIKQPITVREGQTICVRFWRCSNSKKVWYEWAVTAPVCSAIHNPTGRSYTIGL
T1 sequence (Q9BQA1 whole entry partner): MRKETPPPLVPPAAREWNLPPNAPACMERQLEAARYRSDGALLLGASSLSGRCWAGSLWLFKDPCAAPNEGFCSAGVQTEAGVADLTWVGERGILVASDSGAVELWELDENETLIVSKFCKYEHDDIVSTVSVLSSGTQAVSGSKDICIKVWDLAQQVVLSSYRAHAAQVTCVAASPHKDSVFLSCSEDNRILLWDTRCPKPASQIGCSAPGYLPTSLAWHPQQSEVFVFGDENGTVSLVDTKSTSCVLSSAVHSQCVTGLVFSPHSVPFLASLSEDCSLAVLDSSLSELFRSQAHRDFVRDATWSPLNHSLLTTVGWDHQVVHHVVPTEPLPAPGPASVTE

In the case of `C[C@@H]1CC[C@@H](c2cccc(C(F)(F)F)c2)N(C(=O)C(=O)Nc2cncc(C(N)=O)c2)C1` (single isomer, unassigned) [Compound 510], the IC50 in assay [1] (setting [7]) was over 10000 nM; in assay [2] it was over 1000 nM; in assay [3], over 500 nM; in assay [4], over 500 nM; in assay [5] (setting [8]), over 1000 nM; in assay [6], over 500 nM. In assay [5], the MTAP intact/deleted ratio result is “C (an IC50 ratio of less than 3 fold)”.
Take `C[C@H]1CC[C@H](c2ccc(C(F)(F)F)cc2)N(C(=O)C(=O)Nc2cncc(C(N)=O)c2)C1` (single isomer, unassigned) [Compound 511]: the IC50 in assay [1] (setting [7]) was 1000 to 10000 nM; in assay [2], over 1000 nM; in assay [3], 50 to 500 nM; in assay [4], 50 to 500 nM; in assay [5] (setting [8]), 100 to 1000 nM; in assay [6], under 50 nM. Further, the MTAP intact/deleted ratio entry in assay [5] was “A (an IC50 ratio greater than or equal to 10 fold)”.
In the case of `C[C@H]1CC[C@H](c2ccc(F)c(Cl)c2)N(C(=O)C(=O)Nc2cncc(C(N)=O)c2)C1` (single isomer, unassigned) [Compound 512], the IC50 in assay [1] (setting [7]) is 1000 to 10000 nM; in assay [2], over 1000 nM; in assay [3], 50 to 500 nM; in assay [4], 50 to 500 nM; in assay [5] (setting [8]) it was under 100 nM; in assay [6] it was under 50 nM. The MTAP intact/deleted ratio result in assay [5] was “A (an IC50 ratio greater than or equal to 10 fold)”.
With `C[C@@H]1CC[C@@H](c2ccc(F)c(Cl)c2)N(C(=O)C(=O)Nc2cncc(C(N)=O)c2)C1` (single isomer, unassigned) [Compound 513], the IC50 in assay [1] (setting [7]) was over 10000 nM; in assay [2] it was over 1000 nM; in assay [3] it was over 500 nM; in assay [4], over 500 nM; in assay [5] (setting [8]), over 1000 nM; in assay [6] it was over 500 nM. For the same molecule, the MTAP intact/deleted ratio entry in assay [5] is “C (an IC50 ratio of less than 3 fold)”.
Take `COc1ncc(NC(=O)C(=O)N2C[C@H](C)CC[C@H]2c2cncs2)cc1C(N)=O` (single isomer, unassigned) [Compound 514]: the IC50 was over 10000 nM in assay [1] (setting [7]); over 1000 nM in assay [2]; over 500 nM in assay [3]; over 500 nM in assay [4]; over 1000 nM in assay [5] (setting [8]); over 500 nM in assay [6]. Further, the MTAP intact/deleted ratio result in assay [5] was “C (an IC50 ratio of less than 3 fold)”.
Regarding `COc1ncc(NC(=O)C(=O)N2C[C@@H](C)CC[C@@H]2c2cncs2)cc1C(N)=O` (single isomer, unassigned) [Compound 516], the IC50 in assay [1] (setting [7]) was under 1000 nM; in assay [2] it was over 1000 nM; in assay [3], under 50 nM; in assay [4], under 50 nM; in assay [5] (setting [8]), under 100 nM; in assay [6], under 50 nM. Moreover, the MTAP intact/deleted ratio entry in assay [5] is recorded as “A (an IC50 ratio greater than or equal to 10 fold)”.
As to `Cc1cc(NC(=O)C(=O)N2CCCC[C@H]2c2ccc3[nH]ncc3c2)cnc1N` (single isomer, unassigned) [Compound 518], the IC50 in assay [1] (setting [7]) was under 1000 nM; in assay [2], over 1000 nM; in assay [3], 50 to 500 nM; in assay [4], 50 to 500 nM; in assay [5] (setting [8]), under 100 nM; in assay [6], under 50 nM. Also, in assay [5], the MTAP intact/deleted ratio entry was “A (an IC50 ratio greater than or equal to 10 fold)”.
With `Cc1cc([C@@H]2CC[C@@H](C)CN2C(=O)C(=O)Nc2cncc(C(N)=O)c2)ccn1` (single isomer, unassigned) [Compound 519], the IC50 was over 10000 nM in assay [1] (setting [7]); over 1000 nM in assay [2]; over 500 nM in assay [3]; over 500 nM in assay [4]; over 1000 nM in assay [5] (setting [8]); over 500 nM in assay [6]. In assay [5], the MTAP intact/deleted ratio result is on record as “C (an IC50 ratio of less than 3 fold)”.
Consider `C[C@H]1CC[C@H]([C@@H]2CCC[C@@H](O)C2)N(C(=O)C(=O)Nc2cncc(C(N)=O)c2)C1` (single isomer, unassigned) [Compound 520], for which the IC50 is over 10000 nM in assay [1] (setting [7]); over 1000 nM in assay [2]; 50 to 500 nM in assay [3]; 50 to 500 nM in assay [4]; 100 to 1000 nM in assay [5] (setting [8]); 50 to 500 nM in assay [6]. The MTAP intact/deleted ratio result in assay [5] is given as “A (an IC50 ratio greater than or equal to 10 fold)”.
For the molecule `Cc1cc(NC(=O)C(=O)N2C[C@H](C)CC[C@H]2c2ccc(NCC(F)(F)F)cc2)cnc1N` (single isomer, unassigned) [Compound 522], the IC50 in assay [1] (setting [7]) is 1000 to 10000 nM; in assay [2] it was over 1000 nM; in assay [3], 50 to 500 nM; in assay [4], 50 to 500 nM; in assay [5] (setting [8]), 100 to 1000 nM; in assay [6], under 50 nM. In assay [5], the MTAP intact/deleted ratio result is “A (an IC50 ratio greater than or equal to 10 fold)”.
`CC(=O)Nc1ccc([C@H]2CC[C@H](C)CN2C(=O)C(=O)Nc2cnc(N)c(C)c2)cc1` (single isomer, unassigned) [Compound 523]: the IC50 in assay [1] (setting [7]) was over 10000 nM; in assay [2], over 1000 nM; in assay [3], over 500 nM; in assay [4], over 500 nM; in assay [5] (setting [8]) it was over 1000 nM; in assay [6], over 500 nM. In addition, the MTAP intact/deleted ratio entry in assay [5] is recorded as “C (an IC50 ratio of less than 3 fold)”.
Consider `CC(=O)Nc1ccc([C@@H]2CC[C@@H](C)CN2C(=O)C(=O)Nc2cnc(N)c(C)c2)cc1` (single isomer, unassigned) [Compound 527], for which the IC50 in assay [1] (setting [7]) was under 1000 nM; in assay [2], 100 to 1000 nM; in assay [3], under 50 nM; in assay [4] it was 50 to 500 nM; in assay [5] (setting [8]), under 100 nM; in assay [6] it was under 50 nM. Further, the MTAP intact/deleted ratio entry in assay [5] is recorded as “A (an IC50 ratio greater than or equal to 10 fold)”.
Regarding `Cc1cc(NC(=O)C(=O)N2C[C@@H](C)CC[C@@H]2c2ccc(NCC(F)(F)F)cc2)cnc1N` (single isomer, unassigned) [Compound 528], the IC50 in assay [1] (setting [9]) is 1000 to 10000 nM; in assay [2] it was over 1000 nM; in assay [3], over 500 nM; in assay [4] it was over 500 nM; in assay [5] (setting [10]), over 1000 nM; in assay [6], over 500 nM. Further, in assay [5], the MTAP intact/deleted ratio result was “B (an IC50 ratio greater than or equal to 3 fold but lower than 10 fold)”.
For the molecule `C[C@H]1CC[C@H]([C@@H]2CCC[C@H](O)C2)N(C(=O)C(=O)Nc2cncc(C(N)=O)c2)C1` (single isomer, unassigned) [Compound 529], the IC50 in assay [1] (setting [9]) was over 10000 nM; in assay [2] it was over 1000 nM; in assay [3], over 500 nM; in assay [4], over 500 nM; in assay [5] (setting [10]), over 1000 nM; in assay [6] it was over 500 nM. The MTAP intact/deleted ratio result in assay [5] is “C (an IC50 ratio of less than 3 fold)”.
Turning to `C[C@@H]1CC[C@@H]([C@H]2CCC[C@H](O)C2)N(C(=O)C(=O)Nc2cncc(C(N)=O)c2)C1` (single isomer, unassigned) [Compound 530], the IC50 in assay [1] (setting [9]) is over 10000 nM; in assay [2], over 1000 nM; in assay [3] it was over 500 nM; in assay [4], over 500 nM; in assay [5] (setting [10]), over 1000 nM; in assay [6], over 500 nM. Moreover, the MTAP intact/deleted ratio result in assay [5] is on record as “C (an IC50 ratio of less than 3 fold)”.
Regarding `C[C@@H]1CC[C@@H]([C@H]2CCC[C@@H](O)C2)N(C(=O)C(=O)Nc2cncc(C(N)=O)c2)C1` (single isomer, unassigned) [Compound 531], the IC50 in assay [1] (setting [9]) is over 10000 nM; in assay [2] it was over 1000 nM; in assay [3], over 500 nM; in assay [4], 50 to 500 nM; in assay [5] (setting [10]) it was over 1000 nM; in assay [6], 50 to 500 nM. Further, the MTAP intact/deleted ratio result in assay [5] is listed as “B (an IC50 ratio greater than or equal to 3 fold but lower than 10 fold)”.
Take `COc1cc([C@@H]2CC[C@@H](C)CN2C(=O)C(=O)Nc2cncc(C(N)=O)c2)ccn1` (single isomer, unassigned) [Compound 532]: the IC50 was under 1000 nM in assay [1] (setting [9]); over 1000 nM in assay [2]; under 50 nM in assay [3]; 50 to 500 nM in assay [4]; under 100 nM in assay [5] (setting [10]); under 50 nM in assay [6]. In assay [5], the MTAP intact/deleted ratio result is recorded as “A (an IC50 ratio greater than or equal to 10 fold)”.
For the molecule `COc1cc([C@H]2CC[C@H](C)CN2C(=O)C(=O)Nc2cncc(C(N)=O)c2)ccn1` (single isomer, unassigned) [Compound 533], the IC50 was over 10000 nM in assay [1] (setting [9]); over 1000 nM in assay [2]; over 500 nM in assay [3]; over 500 nM in assay [4]; over 1000 nM in assay [5] (setting [10]); over 500 nM in assay [6]. Besides, in assay [5], the MTAP intact/deleted ratio entry was “C (an IC50 ratio of less than 3 fold)”.
